Experiments:
[1] = test system: nonrespiratory coronavirus unrelated to SARS-CoV-2; settings: induced by a nonrespiratory coronavirus; cited from earlier work
"Long-Haul" Covid-19 = assay: Treatment of "Long-Haul" Covid-19 symptoms in the same patient; format: in vivo, human; settings: for effect of added direct intranasal/lung inhalation: 0.1 ml of the 6% solution, 1-2 times/day
Protocol: After patient had discontinued treatment above for several weeks after the first round of disease, subsequent putative recurrent post-acute (“long-haul”) symptoms of Covid-19. These included malaise, fatigue, brain fog, myalgia and musculoskeletal pain, and shortness of breath. […] Treatment was titrated to a clinical response, with a maximum dose of 200 mg/day of Tempol. […] At two such interludes, in place of the Tempol, patient took 100 mg of phenylbutylnitrone (PBN).

Covid-19, Omicron strain = assay: Treatment of "Break-Thru" Covid-19 infection in the same patient; format: in vivo, human

In the case of `CC1(C)CC(O)CC(C)(C)N1[O]` [Tempol, 4-hydroxy-TEMPO], the murine viral encephalomyelitis [1] is listed as “ameliorates”, the “effect of added direct intranasal/lung inhalation” value ("Long-Haul" Covid-19) is listed as “proved helpful” and the “response of long-haul symptoms (malaise, fatigue, brain fog, myalgia and musculoskeletal pain, shortness of breath)” value ("Long-Haul" Covid-19; human, in vivo) is listed as “responded reversibly”. The “symptoms on withdrawal and repeat treatment” value ("Long-Haul" Covid-19; treatment withdrawn, then repeated) was “Symptoms returned when the treatment was withdrawn, but responded to repeat treatment” and the “time to alleviation of upper respiratory tract congestion” value (Covid-19, Omicron strain; inhalation of 20 mg, one 0.1 ml spritz of the 6% solution per nostril, followed by insufflation) was 5 to 10 min.

For `CC1(C)CC(O)CC(C)(C)N1O` [Tempol-H, the hydroxylamine reduced form of the nitroxide 4-hydroxy-2,2,6,6-tetramethylpiperidin-1-yloxy], the “effect of added direct intranasal/lung inhalation” value ("Long-Haul" Covid-19) was “proved helpful”.

For `CC(C)(C)[N+]([O-])=Cc1ccccc1` [PBN, 1-alpha-phenyl-tert-butyl nitrone], the “long-haul symptoms, oral treatment in place of Tempol” value ("Long-Haul" Covid-19; 100 mg, at two interludes) was “some subjective clearing of symptoms”, the “long-haul symptoms, nasal/pulmonary inhalation” value ("Long-Haul" Covid-19; 0.1 ml of a 5% solution in water 3-4 times per day) was “significant symptomatic relief” and the “alleviation of upper respiratory symptoms, alternative intranasal treatments” value (Covid-19, Omicron strain; intranasal 3% gel (Q-tip) or insufflation of 0.2 ml of 3% solution, compared with 6% Tempol spray) was “effective but the response was slower”.

Source: patent US20220280493A1 (priority 2021, published 2022)
